From PMC3733634, “A Computational Module Assembled from Different Protease Family Motifs Identifies PI PLC from Bacillus cereus as a Putative Prolyl Peptidase with a Serine Protease Scaffold” (PLoS ONE, 2013)
Where a name gives a salt, the structure may show the parent alone.

Experiments:
[1] = target: T1, cold-active Vibrio alkaline phosphatase (VAP) (Vibrio sp. G15-21, UniProt Q93P54); test: inhibition of native alkaline phosphatase activity at pH […] (n = […]); type: biochemical
T1 sequence (Q93P54 20-521): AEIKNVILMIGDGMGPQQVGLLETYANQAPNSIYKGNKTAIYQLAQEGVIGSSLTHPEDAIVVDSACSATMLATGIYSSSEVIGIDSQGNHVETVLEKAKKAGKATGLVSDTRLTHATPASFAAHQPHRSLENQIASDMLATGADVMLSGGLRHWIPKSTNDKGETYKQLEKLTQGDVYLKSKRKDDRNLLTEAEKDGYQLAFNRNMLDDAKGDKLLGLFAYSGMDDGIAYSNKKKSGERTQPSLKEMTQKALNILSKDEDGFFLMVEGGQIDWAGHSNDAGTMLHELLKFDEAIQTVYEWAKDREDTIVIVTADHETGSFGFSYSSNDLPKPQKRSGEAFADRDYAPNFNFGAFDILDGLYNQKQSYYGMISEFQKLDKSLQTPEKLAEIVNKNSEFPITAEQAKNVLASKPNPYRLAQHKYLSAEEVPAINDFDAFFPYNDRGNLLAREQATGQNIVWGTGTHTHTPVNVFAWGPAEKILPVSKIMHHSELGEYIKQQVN

[2] = target: phosphoinositide-specific phospholipase C (PI-PLC) (Bacillus cereus, UniProt P14262); test: inhibition of phospholipase activity of commercial PI-PLC on PI-containing large unilamellar vesicles (turbidity/aggregation assay); type: biochemical
Sequence of phosphoinositide-specific phospholipase C (PI-PLC) (P14262 32-329 limits assumed): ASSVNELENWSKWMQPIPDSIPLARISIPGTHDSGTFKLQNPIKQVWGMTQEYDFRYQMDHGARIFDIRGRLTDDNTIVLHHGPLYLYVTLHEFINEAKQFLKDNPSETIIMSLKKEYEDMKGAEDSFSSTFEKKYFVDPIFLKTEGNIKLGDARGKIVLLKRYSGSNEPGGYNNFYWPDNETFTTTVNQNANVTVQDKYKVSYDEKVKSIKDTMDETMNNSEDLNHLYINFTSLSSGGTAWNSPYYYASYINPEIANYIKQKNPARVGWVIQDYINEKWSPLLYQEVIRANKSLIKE

NCCc1ccc(S(=O)(=O)F)cc1 [AEBSF, 4-(2-aminoethyl) benzenesulfonyl fluoride hydrochloride]
IC50 [1]: 350 µM | IC50 [2]: 18 µM
